Assay [1] addresses human A2a adenosine receptor (Homo sapiens (Human), UniProt P29274). The experiment in a line: A2a receptor affinity radioligand binding assay ([3H] SCH58261, membranes from HEK293 or CHO cells). As to conditions: unstarred values: radioligand binding. Summed up: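 Displacement of tritiated SCH58261 (working dilution 4 nM) from recombinant human A2a receptor membranes (HEK293 or CHO), 60 min at room temperature in Tris pH 7.4/MgCl2 buffer after 15–30 min compound preincubation. Scintillation counting after filtration; normalized percent effect fitted 4-parameter logistic for IC50.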

Assay [2] has as its target human A2b adenosine receptor (Homo sapiens (Human), UniProt P29275). The assay can be described thus: A2B antagonism in cAMP cell-based assay (LANCE cAMP, HEK293 cells, 600 nM adenosine). As to conditions: for IC50: values marked *: cAMP cell-based assay. On the procedure:
Measurement of A2A and A2B Antagonism in cAMP Cell-Based Assay
All subsequent liquid additions were performed using a multichannel pipettor. […] After this time 5 μL of either 300 nM or 600 nM adenosine (Sigma Cat. No. A9251) for A2A and A2B respectively was added and incubated for 30 minutes at 37° C. and 5% CO2 in a humidified environment. At this time detection mix was prepared by combining the LANCE Eu-W8044 labeled streptavidin and. Biotin-cAMP in detection buffer according to the manufacturers protocol. […] Curve fitting of the percent effect data versus the log of compound concentration used a 4-parameter concentration response curve fitting algorithm to calculate IC50 values.
(In general: TR-FRET usually uses a lanthanide donor and a delayed reading to cut background.)

human A2a adenosine receptor, sequence (P29274 whole entry): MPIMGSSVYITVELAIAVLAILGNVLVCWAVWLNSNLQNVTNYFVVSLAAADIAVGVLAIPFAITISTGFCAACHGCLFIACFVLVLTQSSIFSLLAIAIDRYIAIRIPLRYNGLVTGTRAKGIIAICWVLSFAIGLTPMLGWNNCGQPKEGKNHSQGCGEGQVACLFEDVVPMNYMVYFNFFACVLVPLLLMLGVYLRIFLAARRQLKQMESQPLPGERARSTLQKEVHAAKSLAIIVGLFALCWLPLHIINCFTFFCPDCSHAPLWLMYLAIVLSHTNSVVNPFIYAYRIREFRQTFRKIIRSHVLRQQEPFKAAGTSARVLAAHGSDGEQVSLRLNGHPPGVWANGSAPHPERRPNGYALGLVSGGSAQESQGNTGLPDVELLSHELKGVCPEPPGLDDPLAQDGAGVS
human A2b adenosine receptor, sequence (P29275 whole entry): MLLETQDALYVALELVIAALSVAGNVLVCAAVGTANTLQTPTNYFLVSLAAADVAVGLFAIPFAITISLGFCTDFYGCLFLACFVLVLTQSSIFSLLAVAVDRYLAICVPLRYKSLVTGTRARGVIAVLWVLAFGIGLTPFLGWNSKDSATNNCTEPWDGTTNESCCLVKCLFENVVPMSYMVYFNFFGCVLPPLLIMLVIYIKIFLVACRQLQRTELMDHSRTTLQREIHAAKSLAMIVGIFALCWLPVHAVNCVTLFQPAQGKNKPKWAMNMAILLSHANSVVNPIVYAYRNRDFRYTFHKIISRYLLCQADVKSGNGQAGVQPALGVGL

For orientation: IC50 means the midpoint of a concentration-inhibition curve. Read a high IC50 as weaker potency. `CC[C@@H]1CC[C@@H](c2nc3c4ccc(OC)cc4nc(N)n3n2)CN1c1cnn(C(C)(C)CO)c1` [Example 215B]: the values for the IC50 in assay [1] and in assay [2] were 0.5 nM and 6.3 nM, respectively.

In the case of `COc1cccc2c1nc(N)n1nc([C@@H]3CCCN(c4cnn([C@@H]5CCC[C@H](O)[C@@]5(C)O)c4)C3)nc21` [Example 27, (1S,2S,6R)-6-(4-((R)-3-(5-amino-7-methoxy-[1,2,4]triazolo[1,5-c]quinazolin-2-yl)piperidin-1-yl)-1H-pyrazol-1-yl)-1-methylcyclohexane-1,2-diol], the values for the IC50 in assay [1] and in assay [2] were 2 nM and 40.3 nM, respectively.

`COc1cccc2c1nc(N)n1nc([C@@H]3CCCN(c4cnn(C(C)C)c4)C3)nc21` [Example 5, (R)-2-(1-(1-isopropyl-1H-pyrazol-4-yl)piperidin-3-yl)-7-methoxy-[1,2,4]triazolo[1,5-c]quinazolin-5-amine]: the IC50 was 2.4 nM in assay [1] and 39.5 nM in assay [2].

`COc1cccc2c1nc(N)n1nc(C3CCC(C)N(c4cnn(CC(F)(F)F)c4)C3)nc21` (single isomer, unassigned) [Example 142D]: the IC50 was 0.9 nM in assay [1] and 9.3 nM in assay [2].

Turning to `COc1cccc2c1nc(N)n1nc([C@@H]3CCCN(c4cc(C(F)(F)F)n(C)n4)C3)nc21` [Example 78, (R)-7-methoxy-2-(1-(1-methyl-5-(trifluoromethyl)-1H-pyrazol-3-yl)piperidin-3-yl)-[1,2,4]triazolo[1,5-c]quinazolin-5-amine], the figures for the IC50 in assay [1] and in assay [2] were 3.3 nM and 2500 nM, respectively.

`COc1cccc2c1nc(N)n1nc([C@@H]3CCCN(c4cnn(C5COC5)c4)C3)nc21` [Example 39, (R)-7-methoxy-2-(1-(1-(oxetan-3-yl)-1H-pyrazol-4-yl)piperidin-3-yl)-[1,2,4]triazolo[1,5-c]quinazolin-5-amine]: the figures for the IC50 in assay [1] and in assay [2] were 2.5 nM and 29.4 nM, respectively.

For `COc1cccc2c1nc(N)n1nc(C3CCC(C)N(c4cnn(CC(C)(C)O)c4)C3)nc21` (single isomer, unassigned) [Example 143C], the IC50 in assay [1] amounted to 31.6 nM; in assay [2], 651 nM.

As to `COc1cccc2c1nc(N)n1nc([C@@H]3CCN(c4cnn(CC(F)(F)F)c4)C3)nc21` [Example 164, (R)-7-methoxy-2-(1-(1-(2,2,2-trifluoroethyl)-1H-pyrazol-4-yl)pyrrolidin-3-yl)-[1,2,4]triazolo[1,5-c]quinazolin-5-amine], the IC50 in assay [1] was 8.9 nM; in assay [2] it was 29.5 nM.

On to `COc1cccc2c1nc(N)n1nc([C@@H]3CCN(c4cnn(C(C)(C)C)c4)C3)nc21` [Example 163, (R)-2-(1-(1-(tert-butyl)-1H-pyrazol-4-yl)pyrrolidin-3-yl)-7-methoxy-[1,2,4]triazolo[1,5-c]quinazolin-5-amine], for which the IC50 in assay [1] stood at 14 nM; in assay [2], 42.1 nM.

In the case of `COc1cccc2c1nc(N)n1nc([C@H]3CC[C@H](C)N(c4cnn(CC5(O)CCC5)c4)C3)nc21` [Example 144B], the half-maximal inhibitory concentration (IC50) was 3.1 nM in assay [1] and 333 nM in assay [2].

For `COc1ccc(F)c2c1nc(N)n1nc([C@@H]3CC[C@H](C)N(c4cnn(CC(C)(C)O)c4)C3)nc21` [Example 224, 1-(4-((2S,5R)-5-(5-amino-10-fluoro-7-methoxy-[1,2,4]triazolo[1,5-c]quinazolin-2-yl)-2-methylpiperidin-1-yl)-1H-pyrazol-1-yl)-2-methylpropan-2-ol], the values for the IC50 in assay [1] and in assay [2] were 0.3 nM and 9.6 nM, respectively.

Take `CC[C@H]1CC[C@@H](c2nc3c4ccc(OC)cc4nc(N)n3n2)CN1c1cnn(C(C)(C)CO)c1` [Example 215D]: the IC50 is 20.7 nM in assay [1] and 721 nM in assay [2].

Regarding `COc1cccc2c1nc(N)n1nc([C@@H]3CCCN(c4cncn4C)C3)nc21` [Example 86, (R)-7-methoxy-2-(1-(1-methyl-1H-imidazol-5-yl)piperidin-3-yl)-[1,2,4]triazolo[1,5-c]quinazolin-5-amine], the IC50 in assay [1] turned out to be 2.1 nM; in assay [2] it was 146 nM.

As to `Cn1cc(N2CCC[C@@H](c3nc4c5cccc(OC(F)F)c5nc(N)n4n3)C2)cn1` [Example 126, (R)-7-(difluoromethoxy)-2-(1-(1-methyl-1H-pyrazol-4-yl)piperidin-3-yl)-[1,2,4]triazolo[1,5-c]quinazolin-5-amine], the IC50 came out at 13.2 nM in assay [1] and 2510 nM in assay [2].

For the compound `COc1cccc2c1nc(N)n1nc([C@@H]3CCCN(c4ccccn4)C3)nc21` [Example 119], the IC50 in assay [1] turned out to be 1.2 nM; in assay [2] it was 18.1 nM.

Turning to `COc1cccc2c1nc(N)n1nc([C@@H]3CCCN(c4cnn(CC5CCC5)c4)C3)nc21` [Example 8, (R)-2-(1-(1-(cyclobutylmethyl)-1H-pyrazol-4-yl)piperidin-3-yl)-7-methoxy-[1,2,4]triazolo[1,5-c]quinazolin-5-amine], the values for the IC50 in assay [1] and in assay [2] were 1.4 nM and 211 nM, respectively.

The compound `COc1cccc2c1nc(N)n1nc([C@@H]3CCCN(c4nccc(C(F)(F)F)n4)C3)nc21` [Example 111, (R)-7-methoxy-2-(1-(4-(trifluoromethyl)pyrimidin-2-yl)piperidin-3-yl)-[1,2,4]triazolo[1,5-c]quinazolin-5-amine] returned an IC50 in assay [1] of 16.4 nM. Further, the “*A2B cAMP % inh. @ 10000 nM” value in assay [2] (@ 10000 nM, marked *) was found to be 10% inh. @ 10000 nM*.

As to `COc1ccc2c(c1)nc(N)n1nc([C@@H]3CCCN(c4cnn([C@H](C)[C@@H](C)O)c4)C3)nc21` [Example 220B, (2R,3R)-3-(4-((R)-3-(5-amino-8-methoxy-[1,2,4]triazolo[1,5-c]quinazolin-2-yl)piperidin-1-yl)-1H-pyrazol-1-yl)butan-2-ol], the IC50 in assay [1] is 1.39 nM; in assay [2], 52.8 nM.

Take `COc1ccc2c(c1)nc(N)n1nc([C@@H]3CCCN(c4cnn([C@@H](C)[C@H](C)O)c4)C3)nc21` [Example 220A, (2S,3S)-3-(4-((R)-3-(5-amino-8-methoxy-[1,2,4]triazolo[1,5-c]quinazolin-2-yl)piperidin-1-yl)-1H-pyrazol-1-yl)butan-2-ol]: the IC50 in assay [1] was 1.03 nM; in assay [2], 66.2 nM.

Take `Cn1cc(N2CCCC(c3nc4c5cccc(F)c5nc(N)n4n3)C2)cn1` (single isomer, unassigned) [Example 131A, (R or S)-7-fluoro-2-(1-(1-methyl-1H-pyrazol-4-yl)piperidin-3-yl)-[1,2,4]triazolo[1,5-c]quinazolin-5-amine]: the results for the IC50 in assay [1] and in assay [2] were 34 nM and 1680 nM, respectively.

Take `Cn1cc(N2CCCC(c3nc4c5cccc(F)c5nc(N)n4n3)C2)cn1` (single isomer, unassigned) [Example 131B, (S or R)-7-fluoro-2-(1-(1-methyl-1H-pyrazol-4-yl)piperidin-3-yl)-[1,2,4]triazolo[1,5-c]quinazolin-5-amine]: the IC50 in assay [1] was 9.3 nM; in assay [2] it was 121 nM.

Consider `COc1cccc2c1nc(N)n1nc([C@@H]3CCCN(c4ccc(=O)n(CC(F)(F)F)c4C)C3)nc21` [Example 94, (R)-5-(3-(5-amino-7-methoxy-[1,2,4]triazolo[1,5-c]quinazolin-2-yl)piperidin-1-yl)-6-methyl-1-(2,2,2-trifluoroethyl)pyridin-2(1H)-one], for which the IC50 in assay [1] worked out at 2.4 nM; in assay [2], 210 nM.

For `CCn1cc(N2C[C@H](c3nc4c5cccc(OC)c5nc(N)n4n3)CC[C@@H]2C)cn1` [Example 140D], the concentration for half-maximal inhibition (IC50) amounted to 5 nM in assay [1] and 3010 nM in assay [2].

For `Nc1nc2c(Cl)cccc2c2nc(C3CCCN(c4cnn(C5CC5)c4)C3)nn12` (racemic) [Example 133, rac-7-chloro-2-(1-(1-cyclopropyl-1H-pyrazol-4-yl)piperidin-3-yl)-[1,2,4]triazolo[1,5-c]pyquinazolin-5-amine], the IC50 in assay [1] came to 1.2 nM; in assay [2], 116 nM.

Turning to `COc1cccc2c1nc(N)n1nc([C@@H]3CCCN(c4csc(C5CC5)n4)C3)nc21` [Example 85, (R)-2-(1-(2-cyclopropylthiazol-4-yl)piperidin-3-yl)-7-methoxy-[1,2,4]triazolo[1,5-c]quinazolin-5-amine], the figures for the concentration for half-maximal inhibition (IC50) in assay [1] and in assay [2] were 14.9 nM and 314 nM, respectively.

As to `COc1cccc2c1nc(N)n1nc([C@@H]3CCCN(c4cnn(CS(C)(=O)=O)c4)C3)nc21` [Example 123, (R)-7-methoxy-2-(1-(1-((methylsulfonyl)methyl)-1H-pyrazol-4-yl)piperidin-3-yl)-[1,2,4]triazolo[1,5-c]quinazolin-5-amine], the IC50 was 0.8 nM in assay [1] and 13.1 nM in assay [2].

As to `COc1ccc2c(c1)nc(N)n1nc([C@@H]3CCCN(c4cnn(C)c4)C3)nc21` [Example 177, (R)-8-methoxy-2-(1-(1-methyl-1H-pyrazol-4-yl)piperidin-3-yl)-[1,2,4]triazolo[1,5-c]quinazolin-5-amine], the values for the IC50 in assay [1] and in assay [2] were 4.7 nM and 132 nM, respectively.

On to `COc1cccc2c1nc(N)n1nc([C@@H]3CCCN(c4cnn(C5CCC5)c4)C3)nc21` [Example 18, (R)-2-(1-(1-cyclobutyl-1H-pyrazol-4-yl)piperidin-3-yl)-7-methoxy-[1,2,4]triazolo[1,5-c]quinazolin-5-amine], for which the IC50 in assay [1] is 1 nM; in assay [2] it was 46.4 nM.

Consider `COc1cccc2c1nc(N)n1nc([C@@H]3CCCN(c4cc(=O)n(C)c5ccccc45)C3)nc21` [Example 90, (R)-4-(3-(5-amino-7-methoxy-[1,2,4]triazolo[1,5-c]quinazolin-2-yl)piperidin-1-yl)-1-methylquinolin-2(1H)-one], for which the concentration for half-maximal inhibition (IC50) in assay [1] is 1.9 nM; in assay [2], 5930 nM.

The values above are taken from US12263171B2, “7-, 8-, and 10-substituted amino triazolo quinazoline derivatives as adenosine receptor antagonists, pharmaceutical compositions and their use” (Merck Sharp & Dohme LLC, priority 2018, dated 2025).
